For eleven compounds, IC50 results are on record in US20210284638A1 (Saint Louis University, priority 2018, published 2021).

Counter-ions that a name gives are not always drawn.

Holding throughout (format): binding
For assay [1], the target named is T1, Recombinant human integrin α5β1 (Homo sapiens, UniProt P05556+P08648).
T1 construct: purchased R&D Systems 3230-A5
As to the kind of experiment: Solid Phase Receptor Assay (SPRA) for α5β1 function. As to conditions: plate-bound human fibronectin.

Assay [2] addresses T2, Recombinant human integrin αVβ6 (Homo sapiens, UniProt P06756+P18564).
T2 construct: purchased R&D Systems 3817-AV
As to the kind of experiment: Solid Phase Receptor Assay (SPRA) for αVβ6 function. The following applies: plate-bound human LAP.

Assay [3] concerns the target T3, Recombinant human integrin αvβ1 (Homo sapiens, UniProt P05556+P06756).
T3 construct: purchased R&D Systems 6579-AV
The assay is described as follows: Solid Phase Receptor Assay (SPRA) for αVβ1 function. As to conditions: plate-bound human fibronectin.

In assay [4] the target is T4, Recombinant human integrin αVβ8 (Homo sapiens, UniProt P06756+P26012).
T4 construct: purchased R&D Systems 4135-AV
As to the kind of experiment: Solid Phase Receptor Assay for αVβ8 function. As to conditions: plate-bound human LAP; read-out: αVβ8 SPRA IC50.

T1 sequence (P08648 42-995 limits assumed): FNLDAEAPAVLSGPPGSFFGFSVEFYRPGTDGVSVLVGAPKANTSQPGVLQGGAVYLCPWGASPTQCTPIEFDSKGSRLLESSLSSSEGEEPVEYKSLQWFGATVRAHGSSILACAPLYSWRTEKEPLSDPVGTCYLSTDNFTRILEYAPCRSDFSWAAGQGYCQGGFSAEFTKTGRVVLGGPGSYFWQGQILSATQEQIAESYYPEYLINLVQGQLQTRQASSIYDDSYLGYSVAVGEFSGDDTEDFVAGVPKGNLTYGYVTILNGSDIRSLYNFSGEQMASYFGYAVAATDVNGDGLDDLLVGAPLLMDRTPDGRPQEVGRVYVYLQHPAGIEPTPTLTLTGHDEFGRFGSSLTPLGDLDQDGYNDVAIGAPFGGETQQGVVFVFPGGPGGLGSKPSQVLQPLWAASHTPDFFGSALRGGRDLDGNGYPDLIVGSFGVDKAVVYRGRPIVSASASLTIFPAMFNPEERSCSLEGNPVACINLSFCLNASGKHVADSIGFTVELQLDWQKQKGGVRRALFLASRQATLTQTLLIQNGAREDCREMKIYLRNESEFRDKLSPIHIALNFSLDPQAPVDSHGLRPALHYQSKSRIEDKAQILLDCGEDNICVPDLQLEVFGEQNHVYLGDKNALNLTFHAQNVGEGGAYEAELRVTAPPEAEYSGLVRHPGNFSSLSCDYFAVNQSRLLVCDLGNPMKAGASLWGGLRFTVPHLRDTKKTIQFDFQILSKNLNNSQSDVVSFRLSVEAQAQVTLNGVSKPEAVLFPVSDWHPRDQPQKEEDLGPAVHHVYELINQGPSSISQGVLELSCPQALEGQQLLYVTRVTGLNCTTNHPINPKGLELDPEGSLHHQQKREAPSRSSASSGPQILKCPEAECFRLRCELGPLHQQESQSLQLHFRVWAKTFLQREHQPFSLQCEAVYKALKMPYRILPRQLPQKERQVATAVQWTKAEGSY
T1 sequence (P05556 21-728 limits assumed): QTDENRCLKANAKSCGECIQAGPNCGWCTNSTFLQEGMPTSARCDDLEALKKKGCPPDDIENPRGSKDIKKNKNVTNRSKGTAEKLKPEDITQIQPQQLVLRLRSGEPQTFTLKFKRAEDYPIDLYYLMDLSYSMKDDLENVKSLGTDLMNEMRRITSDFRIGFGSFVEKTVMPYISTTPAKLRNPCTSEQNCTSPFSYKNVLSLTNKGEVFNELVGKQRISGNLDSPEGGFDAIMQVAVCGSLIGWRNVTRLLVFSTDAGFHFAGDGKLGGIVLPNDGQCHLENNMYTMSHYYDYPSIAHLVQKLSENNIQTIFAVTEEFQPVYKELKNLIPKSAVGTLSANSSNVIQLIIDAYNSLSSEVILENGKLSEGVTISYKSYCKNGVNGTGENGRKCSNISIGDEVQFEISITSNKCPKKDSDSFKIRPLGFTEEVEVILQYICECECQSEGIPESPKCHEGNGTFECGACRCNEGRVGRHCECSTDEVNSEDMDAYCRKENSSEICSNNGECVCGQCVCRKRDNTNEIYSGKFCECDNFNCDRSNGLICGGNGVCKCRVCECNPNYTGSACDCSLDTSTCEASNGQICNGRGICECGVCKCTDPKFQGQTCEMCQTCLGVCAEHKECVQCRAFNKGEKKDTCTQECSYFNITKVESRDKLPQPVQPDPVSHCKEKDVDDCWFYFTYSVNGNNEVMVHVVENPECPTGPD
T3 sequence (P06756 31-992 limits assumed): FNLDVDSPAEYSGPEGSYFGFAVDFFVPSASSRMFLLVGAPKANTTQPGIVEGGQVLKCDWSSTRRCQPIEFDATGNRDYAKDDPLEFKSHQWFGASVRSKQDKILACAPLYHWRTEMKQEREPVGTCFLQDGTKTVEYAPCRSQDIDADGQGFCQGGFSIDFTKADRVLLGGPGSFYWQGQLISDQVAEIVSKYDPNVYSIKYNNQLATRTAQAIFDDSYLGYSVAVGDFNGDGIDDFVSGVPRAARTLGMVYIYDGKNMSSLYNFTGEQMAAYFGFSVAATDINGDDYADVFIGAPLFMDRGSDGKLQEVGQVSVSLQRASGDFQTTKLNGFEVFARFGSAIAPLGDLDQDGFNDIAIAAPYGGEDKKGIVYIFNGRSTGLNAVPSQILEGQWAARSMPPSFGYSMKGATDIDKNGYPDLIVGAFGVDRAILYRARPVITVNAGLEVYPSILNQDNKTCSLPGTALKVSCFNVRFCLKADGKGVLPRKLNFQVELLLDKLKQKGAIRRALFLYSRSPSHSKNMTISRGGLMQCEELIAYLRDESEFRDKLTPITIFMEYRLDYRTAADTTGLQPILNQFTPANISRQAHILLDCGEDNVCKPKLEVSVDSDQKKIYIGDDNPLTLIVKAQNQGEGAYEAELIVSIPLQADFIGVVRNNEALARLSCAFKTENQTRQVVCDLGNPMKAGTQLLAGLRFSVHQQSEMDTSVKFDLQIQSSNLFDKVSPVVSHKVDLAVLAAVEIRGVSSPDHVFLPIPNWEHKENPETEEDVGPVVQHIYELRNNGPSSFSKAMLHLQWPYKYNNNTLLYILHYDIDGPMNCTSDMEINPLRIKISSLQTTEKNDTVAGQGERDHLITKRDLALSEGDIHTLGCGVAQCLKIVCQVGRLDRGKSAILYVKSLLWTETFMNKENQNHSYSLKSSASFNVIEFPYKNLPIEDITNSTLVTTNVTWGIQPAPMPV
T3 sequence (P05556 21-728 limits assumed): as the sequence (P05556 21-728 limits assumed) above
T4 sequence (P06756 31-992 limits assumed): as the sequence (P06756 31-992 limits assumed) above
T4 sequence (P26012 43-684 limits assumed): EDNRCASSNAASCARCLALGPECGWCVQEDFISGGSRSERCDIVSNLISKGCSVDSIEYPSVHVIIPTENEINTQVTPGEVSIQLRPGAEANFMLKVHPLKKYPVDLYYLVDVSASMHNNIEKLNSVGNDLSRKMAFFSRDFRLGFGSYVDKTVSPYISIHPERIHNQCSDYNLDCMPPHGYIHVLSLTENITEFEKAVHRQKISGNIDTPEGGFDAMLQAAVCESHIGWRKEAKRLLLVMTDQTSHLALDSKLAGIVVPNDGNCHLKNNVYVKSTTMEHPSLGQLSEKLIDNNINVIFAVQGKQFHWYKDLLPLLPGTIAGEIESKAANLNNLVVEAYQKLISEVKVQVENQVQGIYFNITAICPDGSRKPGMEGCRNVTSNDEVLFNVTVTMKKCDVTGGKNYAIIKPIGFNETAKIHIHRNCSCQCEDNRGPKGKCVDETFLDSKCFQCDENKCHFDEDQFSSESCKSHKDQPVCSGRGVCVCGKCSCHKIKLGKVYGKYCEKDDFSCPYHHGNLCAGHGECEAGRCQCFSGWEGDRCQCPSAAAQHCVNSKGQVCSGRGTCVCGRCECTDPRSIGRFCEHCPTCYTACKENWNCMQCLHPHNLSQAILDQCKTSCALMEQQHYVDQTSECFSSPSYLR
T2 sequence (P06756 31-992 limits assumed): as the sequence (P06756 31-992 limits assumed) above
T2 sequence (P18564 22-707 limits assumed): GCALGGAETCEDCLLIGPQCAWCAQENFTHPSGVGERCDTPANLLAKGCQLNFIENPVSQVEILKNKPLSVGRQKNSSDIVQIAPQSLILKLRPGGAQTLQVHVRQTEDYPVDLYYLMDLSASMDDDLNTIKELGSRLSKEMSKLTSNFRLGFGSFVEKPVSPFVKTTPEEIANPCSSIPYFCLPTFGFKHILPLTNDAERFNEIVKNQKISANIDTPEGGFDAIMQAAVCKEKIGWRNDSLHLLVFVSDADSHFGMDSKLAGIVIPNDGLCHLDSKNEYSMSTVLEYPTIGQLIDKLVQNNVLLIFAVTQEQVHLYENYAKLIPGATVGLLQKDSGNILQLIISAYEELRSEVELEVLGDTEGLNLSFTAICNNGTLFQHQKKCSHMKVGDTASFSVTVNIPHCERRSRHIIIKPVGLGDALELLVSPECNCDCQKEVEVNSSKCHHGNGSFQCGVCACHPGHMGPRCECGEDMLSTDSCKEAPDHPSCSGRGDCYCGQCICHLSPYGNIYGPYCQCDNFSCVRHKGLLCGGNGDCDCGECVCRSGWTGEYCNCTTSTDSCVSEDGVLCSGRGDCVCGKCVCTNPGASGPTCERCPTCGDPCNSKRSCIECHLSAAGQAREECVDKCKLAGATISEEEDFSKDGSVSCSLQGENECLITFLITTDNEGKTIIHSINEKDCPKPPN

Turning to `COc1ccc(C2=CCOCC2)cc1[C@@H](CC(=O)O)Cc1csc(CCCc2ccc3c(n2)NCCC3)n1` [Example 37B, (R)-3-(5-(3,6-dihydro-2H-pyran-4-yl)-2-methoxyphenyl)-4-(2-(3-(5,6,7,8-tetrahydro-1,8-naphthyridin-2-yl)propyl)thiazol-4-yl)butanoic acid trifluoroacetate], the 50% inhibitory concentration (IC50) was 2800 nM in assay [1], 3000 nM in assay [2], 190 nM in assay [3] and 5600 nM in assay [4].
For `Cc1cc(C)n(-c2cccc(C(CC(=O)O)Cc3csc(CCc4ccc5c(n4)NCCC5)n3)c2)n1` (centres unmarked) [Example 38, 3-(3-(3,5-dimethyl-1H-pyrazol-1-yl)phenyl)-4-(2-(2-(5,6,7,8-tetrahydro-1,8-naphthyridin-2-yl)ethyl)thiazol-4-yl)butanoic acid] the same measures were 420 nM, 240 nM, 15 nM and 2700 nM.
For `CC(C)(C)c1cc(C(CC(=O)O)Cc2cc(OCCc3ccc4c(n3)NCCC4)n(CC(F)(F)F)n2)cc(C(C)(C)C)c1` (centres unmarked) [Example 40, 3-(3,5-di-tert-butylphenyl)-4-(5-(2-(5,6,7,8-tetrahydro-1,8-naphthyridin-2-yl)ethoxy)-1-(2,2,2-trifluoroethyl)-1H-pyrazol-3-yl)butanoic acid trifluoroacetate] the same measures were 6 nM, 790 nM, 3 nM and 30 nM.
The corresponding values for `Cn1nc(CC(CC(=O)O)c2cc(C(C)(C)C#N)cc(C(C)(C)C#N)c2)cc1OCCc1ccc2c(n1)NCCC2` (centres unmarked) [Example 41, 3-(3,5-bis(2-cyanopropan-2-yl)phenyl)-4-(1-methyl-5-(2-(5,6,7,8-tetrahydro-1,8-naphthyridin-2-yl)ethoxy)-1H-pyrazol-3-yl)butanoic acid trifluoroacetate] are 0.3 nM, 37 nM, 1 nM and 1 nM.
For `COc1ccc(C2=CCOCC2)cc1C(CC(=O)O)Cc1cc(OCCc2ccc3c(n2)NCCC3)n(C)n1` (centres unmarked) [Example 42], the IC50 in assay [1] is 10 nM; in assay [2], 17 nM; in assay [3], 2 nM; in assay [4] it was 41 nM.
The corresponding values for `COc1ccc(C2CCOCC2)cc1C(CC(=O)O)Cc1csc(CCCc2ccc3c(n2)NCCC3)n1` (centres unmarked) [Example 43, 3-(2-methoxy-5-(tetrahydro-2H-pyran-4-yl)phenyl)-4-(2-(3-(5,6,7,8-tetrahydro-1,8-naphthyridin-2-yl)propyl)thiazol-4-yl)butanoic acid] are 65 nM, 95 nM, 3 nM and 210 nM.
`COc1ccc(C(CC(=O)O)Cc2cc(OCCc3ccc4c(n3)NCCC4)n(C)n2)cc1F` (centres unmarked) [Example 44, 3-(3-fluoro-4-methoxyphenyl)-4-(1-methyl-5-(2-(5,6,7,8-tetrahydro-1,8-naphthyridin-2-yl)ethoxy)-1H-pyrazol-3-yl)butanoic acid]: the IC50 in assay [1] turned out to be 47 nM; in assay [2], 44 nM; in assay [3] it was 3.2 nM; in assay [4], 80 nM.
For `COCC1(c2ccc(OC)c(C(CC(=O)O)Cc3cc(OCCc4ccc5c(n4)NCCC5)n(C)n3)c2)CCOCC1` (centres unmarked) [Example 45, 3-(2-methoxy-5-(4-(methoxymethyl)tetrahydro-2H-pyran-4-yl)phenyl)-4-(1-methyl-5-(2-(5,6,7,8-tetrahydro-1,8-naphthyridin-2-yl)ethoxy)-1H-pyrazol-3-yl)butanoic acid] the same measures were 13 nM, 4100 nM, 2.2 nM and 1000 nM.
The corresponding values for `COc1ccc(C2CCOCC2)cc1C(CC(=O)O)Cc1cc(OCCc2ccc3c(n2)NCCC3)n(C)n1` (centres unmarked) [Example 46, 3-(2-methoxy-5-(tetrahydro-2H-pyran-4-yl)phenyl)-4-(1-methyl-5-(2-(5,6,7,8-tetrahydro-1,8-naphthyridin-2-yl)ethoxy)-1H-pyrazol-3-yl)butanoic acid] are 16 nM, 260 nM, 2.8 nM and 250 nM.
The corresponding values for `Cn1nc(C[C@@H](CC(=O)O)c2cc3c(c(C(C)(C)C)c2)OCO3)cc1OCCc1ccc2c(n1)NCCC2` [Example 47] are 6.2 nM, 15 nM, 0.92 nM and 34 nM.
For `COCC1(c2ccc(OC)c([C@H](CC(=O)O)Cc3cc(OCCc4ccc5c(n4)NCCC5)n(C)n3)c2)CCOCC1` [Example 48, (S)-3-(2-methoxy-5-(4-(methoxymethyl)tetrahydro-2H-pyran-4-yl)phenyl)-4-(1-methyl-5-(2-(5,6,7,8-tetrahydro-1,8-naphthyridin-2-yl)ethoxy)-1H-pyrazol-3-yl)butanoic acid], the half-maximal inhibitory concentration (IC50) in assay [1] is 9.7 nM; in assay [2] it was 2800 nM; in assay [3], 2.4 nM; in assay [4] it was 540 nM.

The term IC50 denotes the point on the concentration scale where inhibition reaches its midpoint.
